Target: T1, Penicillin-binding protein 4 (Bacillus subtilis (strain 168), UniProt P40750)
T1 sequence (P40750 whole entry): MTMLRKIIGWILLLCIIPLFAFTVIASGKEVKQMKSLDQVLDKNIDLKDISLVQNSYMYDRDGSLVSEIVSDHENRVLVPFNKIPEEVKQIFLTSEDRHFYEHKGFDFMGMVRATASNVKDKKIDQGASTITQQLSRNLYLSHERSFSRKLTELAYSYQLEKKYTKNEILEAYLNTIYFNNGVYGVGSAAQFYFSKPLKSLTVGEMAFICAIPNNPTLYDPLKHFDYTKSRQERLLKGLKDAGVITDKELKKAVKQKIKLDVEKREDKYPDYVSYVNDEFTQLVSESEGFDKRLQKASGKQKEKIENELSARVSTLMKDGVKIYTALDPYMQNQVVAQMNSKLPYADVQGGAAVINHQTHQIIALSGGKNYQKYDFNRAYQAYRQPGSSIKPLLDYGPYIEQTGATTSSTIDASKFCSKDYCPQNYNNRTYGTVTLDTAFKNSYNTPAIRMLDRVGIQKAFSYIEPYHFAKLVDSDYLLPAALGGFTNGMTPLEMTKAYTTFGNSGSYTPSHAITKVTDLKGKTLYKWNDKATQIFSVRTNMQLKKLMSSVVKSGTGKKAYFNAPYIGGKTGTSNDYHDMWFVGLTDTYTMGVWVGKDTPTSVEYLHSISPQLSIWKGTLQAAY
Test: Inhibition of Bacillus subtilis 168 PBP4 after 30 mins by SDS-PAGE
Conditions: read-out: kon (M-1-s-1)

## CC1(C)S[C@@H]2[C@H](NC(=O)COc3ccccc3)C(=O)N2[C@H]1C(=O)O [Beepen-VK]
  kon: 19000 M⁻¹ s⁻¹

Reference: BindingDB's records for doi:10.1021/ml400408c (Wesleyan University, 2014)
